In patent publication EP1980561B1, “Substituted 1h-pyrazolo[3,4-b] pyridine derivatives active as kinase inhibitors” (NERVIANO MEDICAL SCIENCES S.R.L., priority 2007, dated 2008) one finds IC50 data, which are given here for 2 molecules.

Experiment [1] addresses T1, AKT1 (Homo sapiens, UniProt P31749). Put plainly: Biochemical assay for inhibitors of AKT1 kinase activity (33P trans-phosphorylation, Dowex resin). More on the design: GST (N); made in house. Conditions: 5 nM enzyme, 132 microM ATP, 30 microM peptide substrate, 60 minutes at room temperature. How it is done:
(§1) The N-terminal GST fusion proteins used for the assays were prepared according to the methods described in Kumar, C. C. Biochem. Biophys. ACTA 2001, 1526, 257-268, and in Alessi, D. R.. Biochem. J. 1998 331, 299-308.
The inhibitory activity of putative kinase inhibitors and the potency of selected compounds were determined using a trans-phosphorylation assay.
A specific substrate was incubated with the kinase in appropriate buffer conditions in the presence of ATP traced with ^33P-γ-ATP (gamma phosphate-labeled, Redivue™
Code Number AH9968, 1000-3000Ci/mmole, Amersham Biosciences Piscataway, NJ, USA), optimal cofactors and test compound.
At the end of the phosphorylation reaction, more than 98% cold and radioactive ATP were captured by an excess of Dowex ion exchange resin. The resin was allowed to settle to the bottom of reaction wells by gravity. Supernatant, containing substrate peptide, was subsequently withdrawn and transferred into a counting plate, and radioactivity (corresponding to phosphate incorporated into peptide) was evaluated by β-counting.
Kinase buffer was composed of 50 mM TRIS pH 7.5 containing10 mM MgCl2, 1 mM DTT, 3 microM Na3VO4, and 0.2 mg/mL BSA. 3X KB is buffer of the same composition and pH as KB, but with three times the concentration of each component. […]

A further experiment has as its target AKT3 (Homo sapiens, UniProt Q9Y243). Nature of the experiment: Biochemical assay for inhibitors of AKT3 kinase activity (33P trans-phosphorylation, Dowex resin). How it is done: The N-terminal GST fusion proteins used for the assays were prepared according to the methods described in Kumar, C. C. Biochem. Biophys. ACTA 2001, 1526, 257-268, and in Alessi, D. R.. Biochem. J. 1998 331, 299-308. The in vitro kinase inhibition assay was conducted in the same way as described for AKT1. The kinase assay was run with a final enzyme concentration of 1 nM, in the presence of 180 microM ATP, 0.88 nM ^33P-γ-ATP and 28.5 microM substrate, a carboxy-terminally biotinylated peptide of the following sequence: ARKRERTYSFGHHA-biotin. The peptide was obtained in batches of >95% peptide purity from PRIMM labs Inc. (Boston MA, USA).

In the next experiment the target is T2, AKT2 (Homo sapiens, UniProt P31751).
T2 construct: GST (N); made in house
T2 sequence (P31751 whole entry, species assumed): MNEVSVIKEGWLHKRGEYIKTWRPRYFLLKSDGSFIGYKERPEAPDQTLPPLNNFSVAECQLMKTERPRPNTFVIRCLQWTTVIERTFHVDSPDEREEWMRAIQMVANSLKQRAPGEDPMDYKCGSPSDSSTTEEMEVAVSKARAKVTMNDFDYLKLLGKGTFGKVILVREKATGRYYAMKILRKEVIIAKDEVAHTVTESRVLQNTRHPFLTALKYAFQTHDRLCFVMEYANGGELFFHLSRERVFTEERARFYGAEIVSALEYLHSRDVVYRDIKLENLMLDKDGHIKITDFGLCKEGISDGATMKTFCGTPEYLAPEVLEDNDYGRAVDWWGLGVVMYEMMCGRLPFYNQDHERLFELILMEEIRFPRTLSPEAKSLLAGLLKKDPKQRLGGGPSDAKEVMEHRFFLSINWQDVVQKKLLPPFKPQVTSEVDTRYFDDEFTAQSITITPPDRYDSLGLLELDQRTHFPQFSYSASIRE
Put plainly: Biochemical assay for inhibitors of AKT2 kinase activity (33P trans-phosphorylation, Dowex resin). Conditions: 10 nM enzyme, 396 microM ATP, 8.5 microM peptide substrate. How it is done: as §1
The in vitro kinase inhibition assay was conducted in the same way as described for AKT1. The kinase assay was run with a final enzyme concentration of 10 nM, in the presence of 396 microM ATP, 0.88 nM ^33P-γ-ATP and 8.5 microM substrate, a carboxy-terminally biotinylated peptide of the following sequence:
ARKRERTYSFGHHA-biotin. The peptide was obtained in batches of >95% peptide purity from PRIMM labs Inc. (Boston MA, USA).

For experiment [2], the target named is T1, AKT1. Put plainly: FABS-NMR screening (3-FABS, 19F-labelled AKTide-like substrate) on AKT-1. The format is biochemical. More on the design: The active human Ser-Thr protein kinase AKT-1 Full Length was expressed as GST fusion protein; GST (cleaved yes); made in house; host or cells: insect cells. Conditions: 25 nM protein, 30 µM substrate, 1.5 mM ATP; read-out: AKT1 IC50 FABS NMR assay. The protocol:
(§2) The biochemical functional NMR screening on the proteins kinase AKT-1 and PKA was performed using the 3-FABS (3-Fluorine Atoms for Biochemical Screening) technique developed by C. Dalvit and the NMR group in house (C. Dalvit et al 2003 J. Am. Chem. Soc. 125 (47): 14620).
(§3) The method require the use of a ^19F-labelled substrate. The same commercial peptide was used as substrate in both enzymatic reaction: the Tyr just before the phosphorilation site in the AKTide peptide was mutated in a 3-tryfluormethyl-Phe by Bachem.
(§4) The AKTide like peptide sequence is reported below: • H-Ala-Arg-Lys-Arg-Glu-Arg-Ala-Phe(3-CF3)-Ser-Phe-Gly-His-His-Ala-OH
The active human Ser-Thr protein kinase AKT-1 Full Length was expressed as GST fusion protein in insect cells and then the GST was cleaved with PreScission protease.
(§5) Reactions were performed in an end point format in eppendorf of 0.5 ml using the buffer solution 50mM Tris, pH 7.5, 5mM MgCl2, 1mM DTT, 8% D2O and 0.001% Triton-X-100; the final volume was of 560 µl. […] The spectra were recorded using the Varian Inova 600 MHz NMR spectrometer operating at a ^19F Larmor frequency of 564 MHz and using a 5mm probe with the inner coil tuned to ^19F and the outer coil tuned to H. The data were recorded without proton decoupling with a spectral width of 12000 Hz, an acquisition time of 0.8s and a relaxation delay of 2.8s. […]

In experiment [3] the test system is S6 ribosomal protein phosphorylation (Ser235/236) in MCF-7 cells. Put plainly: Inhibition of AKT induced S6 ribosomal protein phosphorylation in MCF7 (immunofluorescence, ArrayScan). The format is cell-based. The following applies: Homo sapiens, compound treatment for 4 hour at 37°C, read-out: S6 phosphorylation (Ser235/236) in MCF7-cell IC50. The protocol:
MCF-7 cells (ATCC# HTB-22) were seeded in 96-well poly-lysine coated clear- and flat-bottomed black plates (Matrix Technologies Inc., Hudson, NH, USA), in E-MEM medium (MEM+ Earle's BSS + 2 mM glutamine + 0.1 mM non-essential amino acids) containing 10% of FCS at a density of 7000 cells/well, and incubated overnight at 37°C, 5% CO2, 100% relative humidity. After this incubation, cells were treated with increasing compound doses for 4 hour at 37°C. Afterwards, cells were fixed with PBS/3.7% paraformaldehyde for 15 min at room temperature, wash twice with 200 µl/well D-PBS and permeabilize with a D-PBS solution containing 0.1% Triton X-100 (Sigma-Aldrich, St. Louis, MO, USA) and 0.1% powder Milk for 15 minutes (staining solution). […] Fluorescence images in the DAPI and Cy5™ channels were automatically acquired, stored and analysed using a Cellomics ArrayScan™ IV instrument (Cellomics, Pittsburgh, USA); the Cellomics Cytotoxicity Algorithm was used to quantify cytoplasmic fluorescence associated with phospho-S6 (Cy5™ signal parameter: "Mean Lyso Mass-pH") for each cell in 10 fields/well, and eventually expressed as a mean population value. […]

Another experiment deals with T3, PKAα (Homo sapiens, UniProt P17612).
T3 construct: polyHis; made in house; host or cells: E. coli
Nature of the experiment: FABS-NMR screening (3-FABS, 19F-labelled AKTide-like substrate) on PKA. In kind it is biochemical. The following applies: 25 nM protein, 30 µM substrate, 150 µM ATP. How it is done:
as §2, §3, §4
The active cycled AMP-dependent human protein kinase A PKA was expressed as polyHis-tag protein in E.Coli and purified by affinity column.
as §5

Where two headings read alike, the source gives them in different places.

T1 sequence (P31749 whole entry, the tested form may be a part): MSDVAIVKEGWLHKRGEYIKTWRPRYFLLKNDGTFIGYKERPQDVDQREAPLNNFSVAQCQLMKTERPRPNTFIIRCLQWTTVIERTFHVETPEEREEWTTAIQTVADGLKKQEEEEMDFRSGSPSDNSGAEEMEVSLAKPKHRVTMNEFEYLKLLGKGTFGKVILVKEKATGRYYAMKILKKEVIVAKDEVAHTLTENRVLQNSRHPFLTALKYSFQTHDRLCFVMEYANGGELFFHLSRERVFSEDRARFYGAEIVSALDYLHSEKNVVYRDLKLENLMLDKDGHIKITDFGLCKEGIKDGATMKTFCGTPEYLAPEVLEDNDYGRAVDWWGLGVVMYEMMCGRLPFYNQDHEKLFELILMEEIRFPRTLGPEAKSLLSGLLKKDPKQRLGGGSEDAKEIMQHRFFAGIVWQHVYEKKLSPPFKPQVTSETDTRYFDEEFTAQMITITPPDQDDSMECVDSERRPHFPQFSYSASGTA
AKT3, sequence (Q9Y243 2-479): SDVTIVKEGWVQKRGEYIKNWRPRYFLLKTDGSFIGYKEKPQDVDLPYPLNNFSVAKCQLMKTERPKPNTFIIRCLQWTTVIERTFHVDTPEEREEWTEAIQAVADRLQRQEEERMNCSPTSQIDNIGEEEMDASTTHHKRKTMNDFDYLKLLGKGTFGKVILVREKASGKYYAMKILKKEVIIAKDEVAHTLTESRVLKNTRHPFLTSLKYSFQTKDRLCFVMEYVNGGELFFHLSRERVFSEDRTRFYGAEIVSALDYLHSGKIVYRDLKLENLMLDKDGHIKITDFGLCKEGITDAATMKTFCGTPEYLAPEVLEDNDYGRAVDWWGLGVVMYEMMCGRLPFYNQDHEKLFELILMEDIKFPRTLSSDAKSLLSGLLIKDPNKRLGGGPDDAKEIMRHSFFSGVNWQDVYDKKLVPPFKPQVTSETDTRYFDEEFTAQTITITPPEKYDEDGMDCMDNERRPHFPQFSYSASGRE

Turning to `CN1CCN(C[C@@H](NC(=O)/C(=C/c2n[nH]c3ncccc23)c2cn(C)c3ccc(Br)cc23)c2ccccc2)CC1` [Compound 10, (2E)-2-(5-bromo-1-methyl-1H-indol-3-yl)-N-[(1S)-2-(4-methylpiperazin-1-yl)-1-phenylethyl]-3-(1H-pyrazolo[3,4-b]pyridin-3-yl)acrylamide], the IC50 worked out at 149 nM against AKT1 [1]; 108 nM on AKT3 (1 nM enzyme, 180 microM ATP, 28.5 microM peptide substrate, read-out: AKT3 IC50 Biochemical assay); 786 nM against AKT2; 62 nM on AKT1 [2]; 16 µM in experiment [3]; 1900 nM against PKAα.

For the molecule `NC[C@H](Cc1ccccc1)NC(=O)/C=C/c1n[nH]c2ncccc12` [Compound 1, (E)-N-((S)-2-amino-1benzyl-ethyl)-3-(1H-pyrazolo[3,4-b]pyridin-3-yl)acrylamide tris(trifluoroacetate)], the IC50 at AKT1 [1] turned out to be 17 nM; against AKT3, 19 nM; against AKT2, 92 nM; at AKT1 [2], 62 nM; in experiment [3], 1.35 µM; at PKAα, 25 nM.
